Data on three compounds can be found in patent publication US7943804B2, “Lutein extraction from ozone-treated plant sources” (Board of Supervisors of Louisiana State University and …, priority 2006, dated 2011).

Data set [1] deals with AFB1 mutagenicity, Salmonella strains. The conditions noted are these: cited from earlier work.
In data set [2] the test system is Salmonella typhimurium tester strain TA100. Particulars: for Number of Revertants (without use of AFB1): TA100.
The test system of data set [3] is AFB1 mutagenicity in Salmonella typhimurium tester strain TA100. The format is cell-based. Particulars: AFB1 500 ng/plate.
The test system of data set [4] is Salmonella typhimurium tester strain TA100. The format is cell-based.

Like-named read-outs stand apart in the source and are kept apart here.

`CC1=C[C@H](O)CC(C)(C)[C@H]1/C=C/C(C)=C/C=C/C(C)=C/C=C/C=C(C)/C=C/C=C(C)/C=C/C1=C(C)C[C@@H](O)CC1(C)C` [Lutein, β, e-carotene-3,3′-diol]: in data set [1], the “mutagenic effect of aflatoxin relative to control” value is listed as 2%. The “inhibition of AFB1 mutagenicity, result in words” value in data set [1] (test based on Salmonella strains) is reported as “inhibit the mutagenicity of AFB1”; in data set [3] (TA100), “inhibited AFB1 (500 ng/plate) mutagenicity in a dose-response manner”. Moreover, in data set [2] (TA100, result in words), the “mutagenic effect (increase of revertants over the natural rate)” value was “neither purified lutein nor corn lutein extracts increase the number of revertants over the natural rate”. Also, the “Number of Revertants (without use of AFB1)” value worked out at 247 ± 15 in data set [2] (lutein standard 0.02 μg/plate); 258 ± 10 in data set [2] (lutein standard 0.2 μg/plate, listed as Lutein Standard); 254 in data set [2] (lutein standard 0.2 μg/plate, listed as lutein standard); 261 ± 13 in data set [2] (lutein standard 0.8 μg/plate, listed as Lutein Standard); 261 in data set [2] (lutein standard 0.8 μg/plate, listed as lutein standard); 243 ± 8 in data set [2] (lutein standard 2 μg/plate). The “Number of Revertants (without use of AFB1)” value in data set [2] (lutein standard 10 μg/plate, listed as Lutein Standard) worked out at 264 ± 12; in data set [2] (lutein standard 10 μg/plate, listed as lutein standard) it was 264. The “Number of Revertants” value in data set [3] (lutein standard 0.02 μg/plate) came to 876 ± 34; in data set [3] (lutein standard 0.2 μg/plate), 813 ± 45; in data set [3] (lutein standard 0.8 μg/plate), 741 ± 25; in data set [3] (lutein standard 2 μg/plate), 679 ± 39; in data set [3] (lutein standard 10 μg/plate), 568 ± 50. In addition, the “Percent Inhibition” value in data set [3] (lutein standard 0.02 μg/plate) was 5.3%; in data set [3] (lutein standard 0.2 μg/plate), 12.1%; in data set [3] (lutein standard 0.8 μg/plate), 19.9%; in data set [3] (lutein standard 2 μg/plate), 26.6%; in data set [3] (lutein standard 10 μg/plate), 38.6%.

For `CC1=CCCC(C)(C)[C@H]1/C=C/C(C)=C/C=C/C(C)=C/C=C/C=C(C)/C=C/C=C(C)/C=C/C1=C(C)CCCC1(C)C` [α-carotene], the “mutagenic effect of aflatoxin relative to control” value in data set [1] was 2%.

With aflatoxin B1 [AFB1], the mutagenic potency entry in data set [4] is “about 925 revertants/plate”.
